Source: US20130287688A1, “NOVEL COMPOSITIONS AND USES OF ANTI-HYPERTENSION AGENTS FOR CANCER THERAPY” (XTUIT PHARMACEUTICALS, INC., priority 2010, published 2013)

Tests used:
E0771 tumors = experiment: Tissue oxygenation by phosphorescence quenching microscopy; format: in vivo, mice; conditions: versus control tumors that become more hypoxic with time
Method: Oxygenation was then studied using phosphorescence quenching microscopy.
An oxygen-sensitive porphyrin, Oxyphor R2 (Oxygen Enterprises) was injected retro-orbitally 12 hrs prior to imaging, and was reinjected immediately prior to imaging along with 2MDa FITC-dextran (Sigma-Aldrich) for functional vascular tracing. A mosaic image of the tumor was collected, and oxygen was then measured in an evenly spaced 12×12 grid at four depths (60, 120, 180, and 240 μm) in the tumor. At each point in the grid, the phosphorescence lifetime of the probe was measured after each of several repeated brief intense pulses of 1020 nm laser light, and these lifetime measurements were combined. A two-component model was used to calculate the oxygen tension from each lifetime measurement, accounting for binding and quenching of the probe by both oxygen and proteins. The grid was then overlayed on the mosaic images to make an oxygen map.

[1] = system: carcinoma associated fibroblasts (CAFs); conditions: losartan 10 μmol/L, 24 hrs
Method: Protein assays were done with commercial ELISA kits.
CAFs were plated in 24 well plates at a concentration of 500K cells/well. […] Treatment was done in low serum to reduce background collagen levels. Conditioned medium was collected at the end of the 24-hr treatment period and analyzed for collagen levels.
Collagen I measurements were done with a type I C-terminal collagen propetide Enzyme Linked Immunosorbent Assay (ELISA) kit (Quidel, San Diego, Calif.) and the Sircol soluble collagen assay (Biocolor Ltd., United Kingdom). TGF-β1 assays were performed with a human TGF-β1 ELISA kit (R&D Systems, Minneapolis, Minn.). The assay only measures the free-form of mature TGF-β1. To measure total levels of TGF-β1 the latent form of TGF-β1 was activated with 1N HCl.

HSTS26T tumors [2] = experiment: In vivo proliferation (Ki67 staining); set-up: species or system mice; conditions: after losartan treatment
From the text: (§1) Tumors were resected and stained for Ki67 to assess proliferation rates. […] There was however a significant difference in proliferation between the two tumor types, the number of Ki67 positive cells was 3 fold higher in HSTS26T tumors.
(§2) Ki67 staining was done on paraffin sections 21 days after HSV injection. Slides were microwave processed with Target Retrieval Solution (DAKO, Carpinteria, Calif.) prior to primary antibody detection. The entire tumor section was imaged at 2× magnification and reconstituted as a mosaic. Twenty regions were randomly selected in each tumor. The fraction of Ki67 positive cells in each region was determined by manual count.

Mu89 tumors [3] = experiment: In vivo proliferation (Ki67 staining); set-up: species or system mice; conditions: after losartan treatment
From the text: as §1, §2

HSTS26T tumors [4] = experiment: Intratumoral spread of i.t. injected oncolytic HSV (GFP); format: in vivo, mice; conditions: 24 hrs after i.t. injection of HSV expressing GFP
From the text: (§3) Based on the previous studies on the tumor interstitial matrix (Pluen A, et al. (2001) Proc Natl Acad Sci USA 98:4628-4633 and Brown E, et al. (2003) Nat Med 9:796-800), the inventors then sought to determine if a decrease in collagen content by Losartan can improve the intratumoral distribution of nanoparticles. The inventors therefore measured the intratumoral distribution of fluorescent polystyrene nanoparticles (100 nm diameter) in three different tumor types—HSTS26T, Mu89, and L3.6 pl—after an i.t. or i.v. injection. In mice injected i.t. with nanoparticles, losartan improved nanoparticle accumulation and penetration in the tumor center (FIG. 8A; HSTS26T p<0.001, Mu89 p<0.001). Conversely, there was little or no nanoparticle accumulation in the center of control tumors. Most of the injected nanoparticles in control tumors were found in the tumor margin and around the needle insertion point (FIG. 8A). The inventors also determined the effects of losartan on the intratumoral distribution of oncolytic HSV.
(§4) Nanoparticles and oncolytic HSV were infused with a syringe pump (Harvard Apparatus Standard Pump 22, Holliston, Mass.) at a flow rate of 4 μl/min. The inventors injected 10 μl of HSV (2.5×10^5 t.u.) expressing the green fluorescent protein (GFP), or 10 μl of fluorescent nanoparticles (diameter of […]; concentration of 1×10^13 nanoparticles/ml). […]

Mu89 tumors [5] = experiment: as above; format: in vivo, mice; conditions: 24 hrs after i.t. injection of HSV expressing GFP
From the text: as §3, §4

tumors = experiment: Solid stress after a panel of ARBs; format: in vivo; conditions: 40 mg/kg losartan, 3.2 mg/kg candesartan, 32 mg/kg valsartan
Method: Solid stress levels in tumors after angiotensin inhibition using the ARBs losartan, candesartan, and valsartan are shown. Doses were chosen based on their relative doses in patients for hypertension indications (40 mg/kg losartan, 3.2 mg/kg candesartan, 32 mg/kg valsartan). […] Animal numbers n=6-7. Statistical tests were corrected for multiple comparisons using the Holm-Bonferroni method.
The mechanism responsible for the increase in tumor vessel perfusion by losartan was investigated. Desmoplasia, high stromal cell and matrix density, is a major contributor to the solid stress accumulation that compresses vessels (Stylianopoulos T, et al., Growth-induced mechanical stress in murine and human tumors: causes, consequences and remedies. under review. 2012). Since angiotensin inhibitors reduce matrix production in tumors (Diop-Frimpong B, et al., Proc Natl Acad Sci USA. 2011; 108(7): 2909-14), it was hypothesized that they decompress vessels and increase perfusion by decreasing solid stress. Collagen levels were used as a metric of matrix production as described in Diop-Frimpong et al., Proc Nall Acad Sci USA. […] Moreover, losartan decreased collagen I concentration, measured based on staining intensity, in E0771 and AK4.4 tumors (FIGS. 24B-24C). Of note, dense collagen seemed to colocalize with low-perfusion areas (FIG. 24C). Next, solid stress in these tumors was measured using recently established technique described in Stylianopoulos T, et al., Growth-induced mechanical stress in murine and human tumors: causes, consequences and remedies. under review. 2012. […]
Solid stress: Solid stress was measured using the tumor opening technique as described previously (Stylianopoulos T, et al., Growth-induced mechanical stress in murine and human tumors: causes, consequences and remedies. under review. 2012). […] Subsequently, each tumor was excised, washed with Hanks' Balanced Salt Solution (HBSS) and its three dimensions were measured. […] Afterwards, the opening resulting from the cut was measured at the middle of the cut at the surface of the tumor. […]

HSTS26T tumors [6] = experiment: Distribution of intratumorally injected 100 nm nanoparticles; format: in vivo, mice; conditions: 100 nm diameter nanoparticles
From the text: as §3, §4

Mu89 tumors [7] = experiment: as above; format: in vivo, mice; conditions: 100 nm diameter nanoparticles
From the text: as §3, §4

E0771 breast tumors = experiment: Vessel perfusion histology (lectin / CD31); format: in vivo, SCID mouse; conditions: 40 mg/kg

CCCCc1nc(Cl)c(CO)n1Cc1ccc(-c2ccccc2-c2nn[nH]n2)cc1 [losartan]
tissue oxygenation (E0771 tumors): maintains the level of oxygenation
decrease in collagen I levels [1]: 27%
reduction of active-TGF-β1 levels [1]: 90%
total TGF-β1 levels [1]: unaffected
positive Ki67 staining (HSTS26T tumors [2]): no statistically significant difference
positive Ki67 staining (Mu89 tumors [3]): no statistically significant difference
virus spread (HSTS26T tumors [4]): significantly increased
virus spread (Mu89 tumors [5]): significantly increased
solid stress (tumors): reduce solid stress to a similar degree
increase in distribution of i.t.-injected nanoparticles (HSTS26T tumors [6]): 1.5 fold
increase in distribution of i.t.-injected nanoparticles (Mu89 tumors [7]): 4 fold
CD31+ vessel density (E0771 breast tumors): did not affect
vessel diameters (E0771 breast tumors): increased
